Tests used:
[1] = target: Vps34 (Homo sapiens, UniProt Q8NEB9); experiment: Kinase Glo Luminescent Kinase Assay (Kglo), assay C; format: biochemical; details: read-out: Assay C VPS34 IC50
[2] = target: T1, PI 3-kinase alpha (Homo sapiens, UniProt P42336); experiment: Cellular assay H1, p-Akt (S473) in Rat-1 cells, Surefire format; format: cell-based; details: non-asterisked data: version H1 (Surefire format), Rat-1 cells; read-out: Assay H PI3Kα IC50
[3] = target: mTOR (Homo sapiens, UniProt P42345); experiment: Lanthascreen kinase binding assay, assay G; details: read-out: Assay G mTOR IC50
Protocol: Lanthascreen™ Kinase Binding Assay for mTOR (G)
Binding of an inhibitor to the kinase competes for binding with the tracer, resulting in a loss of FRET.
50 nL of compound dilutions were dispensed onto white 384-well small volume polystyrene plate.

[4] = target: T1, PI 3-kinase alpha; experiment: Kinase Glo Luminescent Kinase Assay (Kglo), assay A; format: biochemical; details: read-out: Assay A PI3Kα IC50
[5] = target: T2, PI 3-kinase beta (Homo sapiens, UniProt P42338); experiment: Cellular assay I1, p-Akt (S473) in Rat-1 cells, Surefire format; format: cell-based; details: non-asterisked data: version I1 (Surefire format), Rat-1 cells; read-out: Assay I PI3Kβ IC50
Target sequence in this assay (P42338 whole entry): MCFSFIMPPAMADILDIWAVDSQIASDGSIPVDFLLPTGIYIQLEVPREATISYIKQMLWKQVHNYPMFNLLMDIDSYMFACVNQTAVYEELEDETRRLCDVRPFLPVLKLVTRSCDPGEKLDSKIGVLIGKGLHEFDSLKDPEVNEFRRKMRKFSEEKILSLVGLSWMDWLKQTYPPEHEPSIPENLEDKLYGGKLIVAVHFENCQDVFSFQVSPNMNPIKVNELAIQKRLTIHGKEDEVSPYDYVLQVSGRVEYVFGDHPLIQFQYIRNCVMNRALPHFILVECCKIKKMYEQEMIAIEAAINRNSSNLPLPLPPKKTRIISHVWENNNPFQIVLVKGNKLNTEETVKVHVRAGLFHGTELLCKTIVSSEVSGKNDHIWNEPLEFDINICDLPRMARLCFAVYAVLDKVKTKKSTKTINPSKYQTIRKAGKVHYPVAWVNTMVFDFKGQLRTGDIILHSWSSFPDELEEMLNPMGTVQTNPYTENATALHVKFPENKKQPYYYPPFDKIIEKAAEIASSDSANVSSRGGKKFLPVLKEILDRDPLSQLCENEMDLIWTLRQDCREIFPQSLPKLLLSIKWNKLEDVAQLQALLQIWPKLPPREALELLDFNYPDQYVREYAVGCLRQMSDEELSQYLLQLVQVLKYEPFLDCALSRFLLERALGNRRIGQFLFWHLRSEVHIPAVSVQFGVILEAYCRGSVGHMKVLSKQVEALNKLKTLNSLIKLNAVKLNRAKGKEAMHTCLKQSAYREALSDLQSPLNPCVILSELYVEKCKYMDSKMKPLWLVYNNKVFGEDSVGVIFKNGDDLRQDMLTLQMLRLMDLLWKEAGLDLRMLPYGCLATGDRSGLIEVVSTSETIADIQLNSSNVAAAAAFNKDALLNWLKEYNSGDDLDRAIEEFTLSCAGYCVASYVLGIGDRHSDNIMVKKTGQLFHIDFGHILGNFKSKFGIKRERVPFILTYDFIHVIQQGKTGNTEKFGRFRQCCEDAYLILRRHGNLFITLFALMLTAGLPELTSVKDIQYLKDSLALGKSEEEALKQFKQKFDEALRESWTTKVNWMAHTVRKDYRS
Target sequence in this assay (Q63787 whole entry partner): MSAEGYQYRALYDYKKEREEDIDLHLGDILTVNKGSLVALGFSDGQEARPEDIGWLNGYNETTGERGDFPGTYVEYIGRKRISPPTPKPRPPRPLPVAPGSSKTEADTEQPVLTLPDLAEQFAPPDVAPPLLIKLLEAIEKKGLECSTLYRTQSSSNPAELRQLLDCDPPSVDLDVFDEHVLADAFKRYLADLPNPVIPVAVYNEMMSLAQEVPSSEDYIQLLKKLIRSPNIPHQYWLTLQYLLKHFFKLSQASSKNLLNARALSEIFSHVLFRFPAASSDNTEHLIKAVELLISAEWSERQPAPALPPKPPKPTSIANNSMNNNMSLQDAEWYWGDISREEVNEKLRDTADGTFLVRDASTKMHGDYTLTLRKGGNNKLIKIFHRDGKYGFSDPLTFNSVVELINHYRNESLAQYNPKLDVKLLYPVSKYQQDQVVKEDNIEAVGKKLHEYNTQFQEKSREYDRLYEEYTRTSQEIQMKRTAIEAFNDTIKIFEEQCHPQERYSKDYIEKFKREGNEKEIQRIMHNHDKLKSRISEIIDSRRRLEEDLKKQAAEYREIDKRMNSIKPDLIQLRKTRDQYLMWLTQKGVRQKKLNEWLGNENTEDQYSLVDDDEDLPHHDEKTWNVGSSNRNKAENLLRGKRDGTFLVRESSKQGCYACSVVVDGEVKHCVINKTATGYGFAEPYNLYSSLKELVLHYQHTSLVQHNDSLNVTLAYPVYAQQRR

[6] = target: PI 4-kinase beta (Homo sapiens, UniProt Q9UBF8); experiment: Kinase Glo Luminescent Kinase Assay (Kglo), assay D; format: biochemical; details: read-out: Assay D PI4Kβ IC50
Sequence of PI 4-kinase beta (Q9UBF8 whole entry): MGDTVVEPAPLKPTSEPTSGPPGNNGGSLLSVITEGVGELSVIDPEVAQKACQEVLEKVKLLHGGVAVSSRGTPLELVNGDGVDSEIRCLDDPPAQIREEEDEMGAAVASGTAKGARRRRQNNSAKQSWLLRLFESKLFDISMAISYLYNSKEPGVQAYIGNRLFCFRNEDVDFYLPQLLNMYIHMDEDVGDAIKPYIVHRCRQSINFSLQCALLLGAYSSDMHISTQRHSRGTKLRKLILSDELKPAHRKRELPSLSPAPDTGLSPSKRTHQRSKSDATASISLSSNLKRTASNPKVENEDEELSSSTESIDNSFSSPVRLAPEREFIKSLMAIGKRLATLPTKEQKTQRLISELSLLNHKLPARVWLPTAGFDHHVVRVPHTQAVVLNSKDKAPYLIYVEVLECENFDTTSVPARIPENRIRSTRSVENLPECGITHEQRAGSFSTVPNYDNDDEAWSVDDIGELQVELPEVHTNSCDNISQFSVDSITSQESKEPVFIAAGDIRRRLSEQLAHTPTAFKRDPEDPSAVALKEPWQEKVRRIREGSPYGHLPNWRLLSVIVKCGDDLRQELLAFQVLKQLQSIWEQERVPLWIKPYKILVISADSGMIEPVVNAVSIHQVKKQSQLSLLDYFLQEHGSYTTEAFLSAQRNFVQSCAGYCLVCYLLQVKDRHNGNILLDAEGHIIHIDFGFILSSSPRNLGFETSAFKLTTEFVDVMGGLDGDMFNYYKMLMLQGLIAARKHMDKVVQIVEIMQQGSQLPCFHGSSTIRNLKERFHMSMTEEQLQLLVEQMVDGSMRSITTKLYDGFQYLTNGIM

[7] = target: T3, PI 3-kinase delta (Homo sapiens, UniProt O00329); experiment: Cellular assay J1, p-Akt (S473) in Rat-1 cells, Surefire format; format: cell-based; details: non-asterisked data: version J1 (Surefire format), Rat-1 cells; read-out: Assay J PI3Kδ IC50
Target sequence in this assay (O00329 whole entry): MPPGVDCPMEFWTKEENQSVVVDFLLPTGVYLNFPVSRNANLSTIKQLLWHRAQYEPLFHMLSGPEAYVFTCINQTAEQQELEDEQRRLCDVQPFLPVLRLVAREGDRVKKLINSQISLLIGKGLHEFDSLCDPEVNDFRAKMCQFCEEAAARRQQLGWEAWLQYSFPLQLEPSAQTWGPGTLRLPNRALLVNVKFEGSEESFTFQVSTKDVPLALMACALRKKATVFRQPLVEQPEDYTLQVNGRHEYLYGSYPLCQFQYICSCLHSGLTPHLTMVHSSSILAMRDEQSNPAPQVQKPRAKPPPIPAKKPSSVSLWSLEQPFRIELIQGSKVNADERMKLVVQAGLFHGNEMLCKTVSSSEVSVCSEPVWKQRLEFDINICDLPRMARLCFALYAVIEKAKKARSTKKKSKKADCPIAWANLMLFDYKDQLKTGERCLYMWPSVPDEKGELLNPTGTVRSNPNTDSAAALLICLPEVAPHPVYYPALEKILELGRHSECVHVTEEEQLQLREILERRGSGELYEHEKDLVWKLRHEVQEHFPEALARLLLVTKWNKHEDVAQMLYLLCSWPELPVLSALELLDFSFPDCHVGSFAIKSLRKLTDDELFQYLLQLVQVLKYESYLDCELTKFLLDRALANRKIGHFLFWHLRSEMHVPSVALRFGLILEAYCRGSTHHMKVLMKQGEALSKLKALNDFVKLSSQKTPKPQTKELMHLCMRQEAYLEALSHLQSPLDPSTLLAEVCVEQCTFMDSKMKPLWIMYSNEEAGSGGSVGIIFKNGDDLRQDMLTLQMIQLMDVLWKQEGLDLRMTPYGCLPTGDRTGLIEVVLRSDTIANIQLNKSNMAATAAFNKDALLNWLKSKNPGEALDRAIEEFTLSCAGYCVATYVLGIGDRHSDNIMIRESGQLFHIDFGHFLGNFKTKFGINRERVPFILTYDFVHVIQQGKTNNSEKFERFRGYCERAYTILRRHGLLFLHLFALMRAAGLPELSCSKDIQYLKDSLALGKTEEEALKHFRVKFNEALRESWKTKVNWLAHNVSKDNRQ
Target sequence in this assay (Q63787 whole entry partner): as the sequence (Q63787 whole entry partner) above
Description: Cellular Assays for PI 3-Kinase Alpha (H1), Beta (I1) and Delta (J1): Surefire Format
AlphaScreen (Amplified Luminescent Proximity Homogeneous Assay, ALPHA, Perkin Elmer) is a non-radioactive bead-based proximity assay technology to study biomolecular interactions in a homogenous microtiter plate format. The brand name SureFire denotes AlphaScreen assays that are adapted to quantify the phosphorylation of endogenous cellular proteins in cell lysates, by using matched antibody pairs, which consist of an anti-phospho-kinase and an anti-kinase antibody. The assay allows characterization of kinase signaling in cells as well as measurement of kinase inhibitor effects.
Using Rat-1 cells stably expressing myr-HA-tagged versions of the human PI3Kdelta, PI3Kalpha, or PI3Kbeta p110 catalytic subunit isoforms, the assay was developed as a two-plate protocol in a 384-well format.
For compound testing, the cells were seeded at a density of 4000 (Rat-1_PI3Kdelta), 7500 (Rat-1_PI3Kalpha), or 6200 (Rat-1_PI3Kbeta) cells in 20 μl complete growth medium into cell culture treated 384-well plates and were grown at 37° C./5% CO2/90% humidity for 24 h. Shortly before compound transfer, the complete medium was removed, 30 μl assay buffer (DMEM high glucose, 1×MEM NEAA, 10 mM HEPES, 2 mM L-glutamine, 0.1% (w/v) BSA) was added and 10 μl of the compound predilutions were transferred to the cells.

[8] = target: T3, PI 3-kinase delta; experiment: TR-FRET Adapta assay, assay F; details: read-out: Assay F PI3Kδ IC50
Target sequence in this assay (O00329 whole entry): as the sequence (O00329 whole entry) above
Target sequence in this assay (P27986 461-568 partner): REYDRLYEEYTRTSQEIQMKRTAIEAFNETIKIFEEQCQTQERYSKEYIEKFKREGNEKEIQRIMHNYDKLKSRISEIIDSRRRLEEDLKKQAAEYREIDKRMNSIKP

[9] = target: PI 3-kinase gamma (Homo sapiens, UniProt P48736); experiment: TR-FRET Adapta assay, assay E; format: biochemical; details: read-out: Assay E PI3Kγ IC50
Sequence of PI 3-kinase gamma (P48736 whole entry): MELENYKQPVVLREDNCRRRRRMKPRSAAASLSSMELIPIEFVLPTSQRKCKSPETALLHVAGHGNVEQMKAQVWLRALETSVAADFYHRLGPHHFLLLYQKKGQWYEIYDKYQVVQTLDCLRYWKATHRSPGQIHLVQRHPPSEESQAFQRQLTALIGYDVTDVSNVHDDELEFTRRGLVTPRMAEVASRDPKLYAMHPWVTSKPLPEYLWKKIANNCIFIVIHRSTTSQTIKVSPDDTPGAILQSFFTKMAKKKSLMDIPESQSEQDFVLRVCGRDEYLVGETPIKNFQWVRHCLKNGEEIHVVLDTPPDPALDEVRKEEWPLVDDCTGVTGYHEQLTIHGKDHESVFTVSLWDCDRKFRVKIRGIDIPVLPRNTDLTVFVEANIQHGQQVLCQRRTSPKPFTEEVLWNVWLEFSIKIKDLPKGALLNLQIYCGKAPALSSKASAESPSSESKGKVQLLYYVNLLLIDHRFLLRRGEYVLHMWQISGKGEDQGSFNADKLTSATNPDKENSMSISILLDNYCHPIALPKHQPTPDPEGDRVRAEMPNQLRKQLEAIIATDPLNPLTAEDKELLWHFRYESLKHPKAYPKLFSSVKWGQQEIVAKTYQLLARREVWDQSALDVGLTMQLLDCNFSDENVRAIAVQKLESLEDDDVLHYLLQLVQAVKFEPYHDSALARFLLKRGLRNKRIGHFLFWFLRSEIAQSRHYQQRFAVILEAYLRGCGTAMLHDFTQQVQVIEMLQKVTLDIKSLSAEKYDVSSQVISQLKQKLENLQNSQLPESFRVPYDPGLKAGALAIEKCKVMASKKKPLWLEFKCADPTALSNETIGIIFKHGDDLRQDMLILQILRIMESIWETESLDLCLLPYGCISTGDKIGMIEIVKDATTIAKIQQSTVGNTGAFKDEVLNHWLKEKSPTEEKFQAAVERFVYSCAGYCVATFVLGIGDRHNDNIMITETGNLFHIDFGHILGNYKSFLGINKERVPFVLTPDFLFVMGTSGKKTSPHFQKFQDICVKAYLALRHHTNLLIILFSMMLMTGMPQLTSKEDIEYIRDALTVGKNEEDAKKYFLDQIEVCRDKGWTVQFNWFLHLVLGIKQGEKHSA

[10] = target: T2, PI 3-kinase beta; experiment: Kinase Glo Luminescent Kinase Assay (Kglo), assay B; format: biochemical; details: read-out: Assay B PI3Kβ IC50
Target sequence in this assay (P42338 whole entry): as the sequence (P42338 whole entry) above
Target sequence in this assay (P27986 461-568 partner): as the sequence (P27986 461-568 partner) above

[11] = Microsomal clearance assay (M); details: intrinsic clearance in rat liver microsomes
Protocol: The experiments were performed in 96-well glass plates at 37° C. on an automated Tecan EVO platform. Test compounds at a concentration of 10 mM in pure DMSO were diluted 1:1000 in water to 10 μM. […] Reactions were initiated by the addition of 150 μL of a cofactor solution containing 2 mM NADPH.

SMILES | IC50 [1] | IC50 [2] | IC50 [3] | IC50 [4] | IC50 [5] | IC50 [6] | IC50 [7] | IC50 [8] | IC50 [9] | IC50 [10] | Assay M RLM CI(int) [11]
Cc1ccc(S(=O)(=O)NCCC(C)(C)O)cc1-c1cnc(N)c(-c2ccoc2)n1 [Example 119.15] | > 9.1 µM | 1.48 µM | > 9.1 µM | 1.66 µM | 7.33 µM | 4.86 µM | 1.65 µM | 0.96 µM | 0.162 µM | 8.81 µM | 
Cc1ccc(S(=O)(=O)NCCC(C)(C)O)cc1-c1cnc(N)c(-c2ccc(N3CCCC3)nc2)n1 [Example 119.17] | > 9.1 µM | 2.81 µM | > 9.1 µM | 1.45 µM | 6.17 µM | 1.56 µM | 7.16 µM | 2.54 µM | 0.362 µM | > 9.1 µM | 
Cc1ccc(S(=O)(=O)NCCC(C)(C)O)cc1-c1cnc(N)c(-c2ccc(F)nc2)n1 [Example 119.18] | > 9.1 µM | 1.32 µM | > 9.1 µM | 0.49 µM | 4.48 µM | 8.19 µM | 1.3 µM | 0.58 µM | 0.248 µM | 8.04 µM | 
Cc1ccc(S(=O)(=O)NCCC(C)(C)O)cc1-c1cnc(N)c(-c2cnn(C)c2C)n1 [Example 119.19] | > 9.1 µM | > 10 µM | > 9.1 µM | > 9.1 µM | > 10 µM | > 9.1 µM | > 10 µM | > 9.1 µM | 3.47 µM | > 9.1 µM | 
Cc1ccc(S(=O)(=O)NCCC(C)(C)O)cc1-c1cnc(N)c(-c2ccc(N3CCOCC3)nc2)n1 [Example 119.21] | > 9.1 µM | 5.16 µM | > 9.1 µM | 1.73 µM | > 10 µM | 3.83 µM | 7.48 µM | 2.18 µM | 0.401 µM | > 9.1 µM | 
Cc1ccc(S(=O)(=O)NCCC(C)(C)O)cc1-c1cnc(N)c(-c2c[nH]nc2C)n1 [Example 119.22] | > 9.1 µM | 4.41 µM | 2.34 µM | 0.57 µM | > 10 µM | 2.19 µM | > 10 µM | 0.53 µM | 0.157 µM | 1.93 µM | 
Cc1ccc(S(=O)(=O)NCCC(C)(C)O)cc1-c1cnc(N)c(-c2ccc(N3CCCCC3)nc2)n1 [Example 119.23] | > 9.1 µM | 1.97 µM | 7.6 µM | 1.34 µM | 8.49 µM | 0.94 µM | 3.53 µM | 2.04 µM | 0.525 µM | > 9.1 µM | 
Cc1ccc(S(=O)(=O)NCCC(C)(C)O)cc1-c1cnc(N)c(-c2ccc(OC3CCOCC3)nc2)n1 [Example 119.24] | > 9.1 µM | 2.6 µM | 9.02 µM | 1.09 µM | 9.22 µM | 3.4 µM | 3.17 µM | 1.67 µM | 0.761 µM | > 9.1 µM | 
Cc1cc(-c2nc(-c3cc(S(=O)(=O)NC4CCNC(=O)C4)ccc3C)cnc2N)ccn1 (stereo not shown) [Example 134, 3-(5-Amino-6-(2-methylpyridin-4-yl)pyrazin-2-yl)-4-methyl-N-(2-oxopiperidin-4-yl)benzenesulfonamide] | > 9.1 µM | > 10 µM | > 9.1 µM | 0.4 µM | > 10 µM | 7.17 µM | > 10 µM | 0.35 µM | 0.055 µM | 4.33 µM | 
Cc1ccc(S(=O)(=O)NCC(C)(C)O)cc1-c1cnc(N)c(-c2cnn(CCN(C)C)c2)n1 [Example 142, 3-(5-Amino-6-(1-(2-(dimethylamino)ethyl)-1H-pyrazol-4-yl)pyrazin-2-yl)-N-(2-hydroxy-2-methylpropyl)-4-methylbenzenesulfonamide] | > 10 µM | > 10 µM |  | 1 µM | > 10 µM | > 10 µM | > 10 µM | 1 µM | 0.27 µM | 6 µM | 34 µL/min/mg

From US10004732B2 (Novartis AG, priority 2014, dated 2018)
